Results reported in patent publication US10052321B2, “Nanoparticulate compositions and formulations of piperazine compounds” (Rexahn Pharmaceuticals, Inc., priority 2013, dated 2018).

Tests used:
Solubility in water = type: physicochemical
Experimental: This poor solubility in water makes it difficult to deliver the compound and related compounds of formula (1) and has limited clinical development, thus creating a need for the development of a formulation suitable for clinical use. The present invention was developed with a goal of obtaining a suitable formulation that can provide a stable suspension of the compound at a concentration of about 100 mg/mL or a dried formulation that could be either delivered orally or used to prepare a stable suspension. While the invention is described and exemplified primarily with respect to 1-(3,5-dimethoxyphenyl)-4-[(6-fluoro-2-methoxyquinoxalin-3-yl)aminocarbonyl]piperazine, it is to be understood that the invention is applicable to other compounds of formula (1).
1-(3,5-Dimethoxyphenyl)-4-[(6-fluoro-2-methoxyquinoxalin-3-yl)aminocarbonyl]piperazine has a very poor solubility in water, less than 0.1 μg/ml, and its solubility was tested in several co-solvents. […] Thus, these classical formulations are not useful in clinical use, although they could be used in some limited purpose in pre-clinical studies.
Particles were crystalline and irregularly shaped. FIG. 1 illustrates particles of 1-(3,5-Dimethoxyphenyl)-4-[(6-fluoro-2-methoxyquinoxalin-3-yl)aminocarbonyl]piperazine at 400× Magnification. […]

[1] = Particle size of unmilled API by laser diffraction; type: physicochemical; details: dispersed in aqueous solution of Aerosol OT
Description: (§1) API morphology can be characterized by optical microscopy (e.g., Olympus BX51 microscope with Clemex JS-2000 controller). Differential scanning calorimetry (e.g., Mettler-Toledo DSC 1) and thermogravimetric analysis (e.g., Mettler-Toledo TGA/DSC 1) can be used to measure the thermal characteristics of the material. Particle size measurements can be made throughout by, for example, laser diffraction (e.g. Horiba LA-950V2), by dispersing the material, either in water, when surfactant is present in the test sample or in a dilute solution of poloxamer when no other dispersant was present.
Based on chemical structure, the refractive index of 1-(3,5-dimethoxyphenyl)-4-[(6-fluoro-2-methoxyquinoxalin-3-yl)aminocarbonyl]piperazine was predicted to be 1.637. For particle size measurements, the imaginary component of the refractive index, or the i-value (a unitless factor used by the laser diffraction algorithm to account for the absorption of light by the particles) was determined to be 0.1. Unmilled 1-(3,5-Dimethoxyphenyl)-4-[(6-fluoro-2-methoxyquinoxalin-3-yl)aminocarbonyl]piperazine dispersed readily in an aqueous solution of (Aerosol OT). The median particle size (D50) measured at 13 μm.

[2] = Thermal analysis (TGA / DSC); type: physicochemical
Description: as §1
Mass loss after 220° C. may be attributable to thermal degradation.
Differential scanning calorimetry (see FIG. 4) confirmed the endotherm related to the initial mass loss at 108° C.

[3] = Oral bioavailability in animal model studies; type: in vivo
Description: Because of the poor aqueous solubility of 1-(3,5-dimethoxyphenyl)-4-[(6-fluoro-2-methoxyquinoxalin-3-yl)aminocarbonyl]piperazine, production of a submicron suspension needed to be developed as a viable oral delivery option to avoid the need to administer large volumes of a 1-(3,5-dimethoxyphenyl)-4-[(6-fluoro-2-methoxyquinoxalin-3-yl)aminocarbonyl]piperazine solution to achieve the intended dosage levels.

solubility (Solubility in water): < 0.1 µg/mL
solubility in water (Solubility in water): practically insoluble
median particle size (D50) [1]: 13 μm
thermal stability ([2]; TGA and DSC data): thermally stable
no indication of decomposition until ([2]; differential scanning calorimetry): 223 °C
oral bioavailability [3]: good oral bioavailability
SMILES: COc1cc(OC)cc(N2CCN(C(=O)Nc3nc4cc(F)ccc4nc3OC)CC2)c1 [Compound A, 1-(3,5-Dimethoxyphenyl)-4-[(6-fluoro-2-methoxyquinoxalin-3-yl)aminocarbonyl]piperazine]
